Structure (SMILES) | melting point
c1ccc(Nc2nc(-c3cn[nH]c3)c(N3CCOCC3)s2)nc1 [Compound 1-2, 5-Morpholino-4-(1H-pyrazol-4-yl)-N-(pyridin-2-yl)thiazol-2-amine] | 230 to 231 °C
c1ccc(Nc2nc(-c3cn[nH]c3)c(N3CCCCC3)s2)nc1 [Compound 1-4, 5-(Piperidin-1-yl)-4-(1H-pyrazol-4-yl)-N-(pyridin-2-yl)thiazol-2-amine] | 238 °C
Cc1sc(Nc2ccccn2)nc1-c1cnn(S(=O)(=O)c2ccc(Cl)cc2)c1 [Compound 1-9, 4-(1-(4-Chlorophenylsulfonyl)-1H-pyrazol-4-yl)-5-methyl-N-(pyridin-2-yl)thiazol-2-amine] | 232 to 233 °C
CN(C)c1sc(Nc2ccccn2)nc1-c1cn[nH]c1 [Compound 1-12, N^5,N^5-Dimethyl-4-(1H-pyrazol-4-yl)-N^2-(pyridin-2-yl)thiazole-2,5-diamine] | 232 °C
Fc1sc(Nc2cccc(Cl)n2)nc1-c1cn[nH]c1 [Compound 1-13, N-(6-Chloropyridin-2-yl)-5-fluoro-4-(1H-pyrazol-4-yl)thiazol-2-amine] | 239 °C
Cc1sc(Nc2cccc(I)n2)nc1-c1cn[nH]c1 [Compound 1-14, N-(6-Iodopyridin-2-yl)-5-methyl-4-(1H-pyrazol-4-yl)thiazol-2-amine] | > 260 °C
Cc1sc(Nc2cc(F)ccn2)nc1-c1cn[nH]c1 [Compound 1-19, N-(4-Fluoropyridin-2-yl)-5-methyl-4-(1H-pyrazol-4-yl)thiazol-2-amine] | 283 °C
Cc1ccc(F)c(Nc2nc(-c3cn[nH]c3)c(C)s2)n1 [Compound 1-23, N-(3-Fluoro-6-methylpyridin-2-yl)-5-methyl-4-(1H-pyrazol-4-yl)thiazol-2-amine] | 323 °C
COc1ccc(Nc2nc(-c3cn[nH]c3)c(C)s2)nc1 [Compound 1-24, N-(5-M ethoxypyridin-2-yl)-5-methyl-4-(1H-pyrazol-4-yl)thiazol-2-amine] | 229 °C
Fc1sc(Nc2cnccn2)nc1-c1cn[nH]c1 [Compound 1-25, 5-Fluoro-N-(pyrazin-2-yl)-4-(1H-pyrazol-4-yl)thiazol-2-amine] | 279 °C
Cc1cnc(Nc2nc(-c3cn[nH]c3)c(C)s2)nc1 [Compound 1-34, 5-Methyl-N-(5-methylpyrimidin-2-yl)-4-(1H-pyrazol-4-yl)thiazol-2-amine] | > 410 °C
Cc1sc(Nc2ccccn2)nc1-c1cnn(C(=O)N(C)C)c1 [Compound 1-36, N,N-Dimethyl-4-(5-methyl-2-(pyridin-2-ylamino)thiazol-4-yl)-1H-pyrazole-1-carboxamide] | 181 to 185 °C

Continued, values first:

melting point | Structure (SMILES)
204 °C | Cc1cccc(Nc2nc(-c3cn[nH]c3)c(F)s2)n1 [Compound 1-11, 5-Fluoro-N-(6-methylpyridin-2-yl)-4-(1H-pyrazol-4-yl)thiazol-2-amine]
243 to 245 °C | Cc1sc(Nc2ncccc2I)nc1-c1cn[nH]c1 [Compound 1-15, N-(3-Iodopyridin-2-yl)-5-methyl-4-(1H-pyrazol-4-yl)thiazol-2-amine]
239 °C | Fc1ccc(Nc2nc(-c3cn[nH]c3)c(F)s2)nc1 [Compound 1-28, 5-Fluoro-N-(5-fluoropyridin-2-yl)-4-(1H-pyrazol-4-yl)thiazol-2-amine]
209 °C | Cc1cccc(Nc2nc(-c3cnn(C(N)=O)c3)c(F)s2)n1 [Compound 1-30, 4-(5-Fluoro-2-(6-methylpyridin-2-ylamino)thiazol-4-yl)-1H-pyrazole-1-carboxamide]
307 to 310 °C | Cc1ccnc(Nc2nc(-c3cn[nH]c3)cs2)n1 [Compound 1-31, N-(4-Methylpyrimidin-2-yl)-4-(1H-pyrazol-4-yl)thiazol-2-amine]
255 °C | Cc1ccnc(Nc2nc(-c3cn[nH]c3)c(C)s2)n1 [Compound 1-33, 5-Methyl-N-(4-methylpyrimidin-2-yl)-4-(1H-pyrazol-4-yl)thiazol-2-amine]

From patent publication US9073907B2, “Thiazoles derivatives and their use as positive allosteric modulators of metabotropic glutamate receptors” (Addex Pharma S.A., priority 2009, dated 2015)
